Assay results published in patent US20250281483A1, “TRANSCRIPTION FACTOR EB ACTIVATORS AND USES THEREOF” (Astellas Engineered Small Molecules US, Incorporated, priority 2022, published 2025).

Columns and labels:
[1] = In Vitro Liver Microsomes Metabolic Stability Assay, human; assay type: in vitro ADME; conditions: human liver microsomes 0.5 mg/mL, 1 μM compound, NADPH, 0 and 30 min; scale-up CLint; read-out: CLint, Human LM
Protocol: (§1) In Vitro Liver Microsomes Metabolic Stability Assay of Different Species
(§2) 1. The liver microsomes were stored at −80° C. prior to use.
(§3) 2. The master solution was prepared according to Table 3.
(§4) 3. 40 μL of 10 mM NADPH solution was added to each well. The final concentrations of NADPH was 1 mM. The mixture was pre-warmed at 37° C. for 5 minutes. The negative control samples were prepared by replacing NADPH solutions with 40 μL of ultra-pure H2O. The negative control was used to exclude the misleading factor that resulted from instability of chemical itself. Samples with NADPH were prepared in duplicate. Negative controls were prepared in singlet.
(§5) 4. The reaction was started with the addition of 2 μL of 200 μM control compound or test compound solutions. Verapamil was used as positive control in this study. The final concentration of test compound or control compound was 1 μM.
(§6) 5. Aliquots of 50 μL were taken from the reaction solution at 0 and 30 minutes. The reaction was stopped by the addition of 4 volumes of cold acetonitrile with Internal Standard (100 nM alprazolam, 200 nM imipramine, 200 nM labetalol and 2 μM ketoprofen). Samples were centrifuged at 3, 220 g for 40 minutes. Aliquot of 90 μL of the supernatant was mixed with 90 μL of ultra-pure H2O and then used for LC-MS/MS analysis.
(§7) Peak areas were determined from extracted ion chromatograms. The slope value, k, was determined by linear regression of the natural logarithm of the remaining percentage of the parent drug vs. incubation time curve.
(§8) The in vitro half-life (in vitro t1/2) was determined from the slope value:
(§9) Conversion of the in vitro t1/2 (min) into the in vitro intrinsic clearance (in vitro CLint, in μL/min/mg protein) was done using the following equation (mean of duplicate determinations): […]
(§10) Conversion of the in vitro t1/2 (min) into the scale-up unbound intrinsic clearance (Scale-up CLint, in mL/min/kg) was done using the following equation (mean of duplicate determinations): […]

[2] = molecular target: T1, TFEB (Homo sapiens, UniProt P19484); test: Tfeb-Translocation Assay HEK-293T-oEX-Tfeb-GFP Cell Line; assay type: cell-based; conditions: HEK-293T-oEX-TFEB-GFP cells; translocation positive cells ratio; read-out: TFEB Translocation EC50
T1 sequence (P19484 1-476): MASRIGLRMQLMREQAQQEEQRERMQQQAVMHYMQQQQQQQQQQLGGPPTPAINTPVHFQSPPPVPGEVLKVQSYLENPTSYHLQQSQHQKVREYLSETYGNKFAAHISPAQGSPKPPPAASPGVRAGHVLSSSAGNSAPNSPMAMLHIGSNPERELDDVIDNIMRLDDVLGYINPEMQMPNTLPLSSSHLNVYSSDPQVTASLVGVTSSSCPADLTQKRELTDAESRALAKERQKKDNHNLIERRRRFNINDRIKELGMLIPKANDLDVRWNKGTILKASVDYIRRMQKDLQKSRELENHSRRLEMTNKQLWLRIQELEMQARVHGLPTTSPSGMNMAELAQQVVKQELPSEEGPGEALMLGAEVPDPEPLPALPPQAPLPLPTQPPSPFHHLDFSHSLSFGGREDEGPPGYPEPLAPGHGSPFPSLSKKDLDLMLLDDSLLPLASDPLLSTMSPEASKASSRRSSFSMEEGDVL
Procedure, shortened: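 HEK-293T cells overexpressing Tfeb-GFP were treated for 6 or 18 h at 37 °C with 10-point 3- or 2-fold dilutions from 50 µM (Torin 1 reference from 300 nM), then PFA-fixed and Hoechst-stained. Cells with nuclear/perinuclear EGFP ratio 1.2 among EGFP-positive cells were scored as translocation-positive; DMSO set to ~15% for normalization.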

[3] = In Vitro Liver Microsomes Metabolic Stability Assay, rat; assay type: in vitro ADME; conditions: rat liver microsomes 0.5 mg/mL, 1 μM compound, NADPH, 0 and 30 min; scale-up CLint; read-out: CLint, Rat LM
Protocol: as §1, §2, §3, §4, §5, §6, §7, §8, §9, §10

[4] = In Vitro Liver Microsomes Metabolic Stability Assay, mouse; assay type: in vitro ADME; conditions: mouse liver microsomes 0.5 mg/mL, 1 μM compound, NADPH, 0 and 30 min; scale-up CLint; read-out: CLint, Mouse LM
Protocol: as §1, §2, §3, §4, §5, §6, §7, §8, §9, §10

Row | CLint scaled at 1 μM [1] | EC50 [2] | CLint scaled at 1 μM [3] | CLint scaled at 1 μM [4] | Compound
1 | 3 mL/min/kg | < 100 nM | 70 mL/min/kg | 124 mL/min/kg | Cc1nc2ccn(Cc3ccccc3)c(=O)c2cc1C(=O)NCc1cc(F)c(F)cn1 [Example 50, 6-benzyl-N-((4,5-difluoropyridin-2-yl)methyl)-2-methyl-5-oxo-5,6-dihydro-1,6-naphthyridine-3-carboxamide]
2 | 2 mL/min/kg | 100 to 1000 nM | 28 mL/min/kg | 91 mL/min/kg | Cc1nc2ccn(Cc3ccccc3)c(=O)c2cc1C(=O)NCc1ccccn1 [Example 7, 6-benzyl-2-methyl-5-oxo-N-(pyridin-2-ylmethyl)-5,6-dihydro-1,6-naphthyridine-3-carboxamide]
3 | 15 mL/min/kg | 100 to 1000 nM | 163 mL/min/kg | 470 mL/min/kg | Cc1nc2ccn(Cc3ccccc3)c(=O)c2cc1C(=O)NCc1ccccc1 [Example 17, N,6-dibenzyl-2-methyl-5-oxo-5,6-dihydro-1,6-naphthyridine-3-carboxamide]
4 | 1 mL/min/kg | < 100 nM | 55 mL/min/kg | 132 mL/min/kg | Cc1nc2ccn(Cc3ccc(Cl)cc3)c(=O)c2cc1C(=O)NCc1ccccn1 [Example 31, 6-(4-chlorobenzyl)-2-methyl-5-oxo-N-(pyridin-2-ylmethyl)-5,6-dihydro-1,6-naphthyridine-3-carboxamide]
5 | 77 mL/min/kg | – | 318 mL/min/kg | 939 mL/min/kg | Cc1nc2ccn(Cc3ccco3)c(=O)c2cc1C(=O)NCC1CCC(Cl)CC1 (stereo not shown) [Comparator 2, reference compound]
6 | – | 1000 to 10000 nM | – | – | COc1ccc(CNC(=O)c2cc3c(=O)n(Cc4ccccc4)ccc3nc2C)cc1 [Example 24, 6-benzyl-N-(4-methoxybenzyl)-2-methyl-5-oxo-5,6-dihydro-1,6-naphthyridine-3-carboxamide]

The remaining lines, values behind:

Row | Compound | CLint scaled at 1 μM [1] | EC50 [2] | CLint scaled at 1 μM [3] | CLint scaled at 1 μM [4]
7 | Cc1nc(CNC(=O)c2cc3c(=O)n(Cc4ccccc4)ccc3nc2C)co1 [Example 18, 6-benzyl-2-methyl-N-((2-methyloxazol-4-yl)methyl)-5-oxo-5,6-dihydro-1,6-naphthyridine-3-carboxamide] | 4 mL/min/kg | 100 to 1000 nM | 73 mL/min/kg | 140 mL/min/kg
8 | Cc1nc2ccn(Cc3ccc(Cl)cc3)c(=O)c2cc1C(=O)NCc1ccc(F)cn1 [Example 51, 6-(4-chlorobenzyl)-N-((5-fluoropyridin-2-yl)methyl)-2-methyl-5-oxo-5,6-dihydro-1,6-naphthyridine-3-carboxamide] | – | < 100 nM | 42 mL/min/kg | 140 mL/min/kg
9 | Cc1ccc(CNC(=O)c2cc3c(=O)n(Cc4ccccc4)ccc3nc2C)o1 [Example 1, 6-benzyl-2-methyl-N-((5-methylfuran-2-yl)methyl)-5-oxo-5,6-dihydro-1,6-naphthyridine-3-carboxamide] | 57 mL/min/kg | < 100 nM | 319 mL/min/kg | 760 mL/min/kg
10 | Cc1cccc(CNC(=O)c2cc3c(=O)n(Cc4ccccc4)ccc3nc2C)c1 [Example 5, 6-benzyl-2-methyl-N-(3-methylbenzyl)-5-oxo-5,6-dihydro-1,6-naphthyridine-3-carboxamide] | 171 mL/min/kg | 100 to 1000 nM | 1040 mL/min/kg | 1800 mL/min/kg
11 | Cc1cccc(CNC(=O)c2cc3c(=O)n(Cc4ccccc4)ccc3nc2C)n1 [Example 6, 6-benzyl-2-methyl-N-((6-methylpyridin-2-yl)methyl)-5-oxo-5,6-dihydro-1,6-naphthyridine-3-carboxamide] | 16 mL/min/kg | 100 to 1000 nM | 217 mL/min/kg | 414 mL/min/kg
12 | Cc1nc2ccn(CC34CC(C3)C4)c(=O)c2cc1C(=O)NCc1ccccn1 [Example 60, 6-(bicyclo[1.1.1]pentan-1-ylmethyl)-2-methyl-5-oxo-N-(pyridin-2-ylmethyl)-5,6-dihydro-1,6-naphthyridine-3-carboxamide] | – | 1000 to 10000 nM | – | –
